The nature of the data set: Adverse effects of daily treatment in tumor-bearing mice (weight, skin histology). The data set is classed as in vivo, hairless NMRI Nude mice.

Method: For hematoxylin/eosin staining (H&E), skin was isolated, immediately fixed in PFA (4% paraformaldehyde in PBS) overnight at room temperature, and then transferred to 70% ethanol prior to paraffin embedding and sectioning. Then, skin sections (8 μm) were stained with hematoxylin for 3 min after rehydration, rinsed for 10 min in running tap water and then stained for 1 min in eosin solution before being mounted on Fluoromount (DAKO). Whole slide pictures were taken by Olympus Slide View VS200 at Histological Core facility—HistoCore, Karolinska Institutet, Sweden, processed, and analyzed by OlyVIA software.
The mice were monitored for signs of discomfort (hunched posture, immobility, >10% weight loss) throughout the duration of the experiment as per ethics application.
In vivo experimentation was performed by inducing subcutaneous GTML2 tumors in mice through injecting a Tet-Off transgenic doxycycline-dependent murine cell line 40 into the flanks. […] Mice were monitored daily and were visualized with IVIS under tumor suspicion. […] Tumors were monitored and measured by IVIS imaging and by vernier calliper every week until the end of the experimentation. When measuring using a Vernier calliper, tumor volumes were calculated from the ellipsoid formula: V=4/3 πWLD. […]

As for `C[C@H]1c2cccc(O)c2C(=O)C2=C(O)[C@]3(O)C(=O)C(C(N)=O)=C(O)[C@@H](N(C)C)[C@@H]3[C@@H](O)[C@@H]21` [Doxycycline, doxycycline], the weight of mice result is on record as “slower increase in their weight” (long term oral doxycycline in drinking water, compared to plain water control group) and “did not alter the weight of the mice” (topical skin treatment, 11 weeks).

The record behind these values is patent publication US20260053731A1, “MICRONEEDLE PARTICLES FOR ENHANCED TOPICAL TRANSDERMAL DRUG DELIVERY” (BONSENS AB, priority 2023, published 2026).
